Data from article PMC10892818, “An Antiherpesviral Host-Directed Strategy Based on CDK7 Covalently Binding Drugs: Target-Selective, Picomolar-Dose, Cross-Virus Reactivity” (Pharmaceutics, 2024).

Legend:
HCMV UL97-C592G [1] = test system: HCMV UL97-C592G; parameters: method as in PMID 31940472; key: R-high, high-level drug resistance; R-int, intermediate-level drug resistance; R-low, low-level drug resistance; S, drug sensitivity; settings: cited from earlier work
HCMV UL97-M460I [2] = test system: HCMV UL97-M460I; parameters: method as in PMID 31940472; key: R-high, high-level drug resistance; R-int, intermediate-level drug resistance; R-low, low-level drug resistance; S, drug sensitivity; settings: cited from earlier work
HCMV UL97-L397R = experiment: HCMV reporter-based antiviral assay, drug-resistant mutant; type: cell-based, human cytomegalovirus; settings: Human betaherpesvirus 5, read-out: Measured EC50 ref. drugs UL97-L397R
Protocol: (§1) For the infection experiments, stocks of the following recombinant, reporter protein-expressing viruses (GFP or YFP (i.e., green or yellow fluorescent protein, respectively)) were propagated (in permissive cells), determined in their infectious titers performing the respective reporter assays, stored by aliquots at −80 °C, and used for the assessment of antiviral drug activities: human cytomegalovirus HCMV AD169-GFP (HFFs); murine cytomegalovirus MCMV C3X-GFP (MEFs); guinea pig cytomegalovirus GPCMV v403-GFP (GPEFs); human herpesvirus type 6A HHV-6A U1102-GFP (J-Jhan); herpes simplex virus type 1 HSV-1 166v VP22-GFP (HFFs); varicella zoster virus VZV Oka-GFP (HFFs); Epstein-Barr virus EBV Akata-GFP (Akata-BX1-GFP carrier cells; kindly provided by Lindsey Hutt-Fletcher and Rona Scott, Dept. Microbiol. Immunol., LSUHSC Univ., Shreveport, LA, USA); and Kaposi’s sarcoma-associated herpesvirus KSHV rKSHV.219-GFP/RFP (in iSLK.219 carrier cells).
(§2) For HCMV AD169-GFP infection, the replication assay was based on a seeding of 225,000 HFFs or 13,500 HFFs in 12 well or 96 well plates, respectively, which were then inoculated with HCMV AD169-GFP [55] at an MOI of 0.25 GFP-FU/mL/7 d for a 90 min period of inoculum–cell adsorption, followed by a medium refreshment including the immediate addition of antiviral compounds. At 7 d p.i., the infected HFFs were either directly fixed with 10% formalin for 20 min at 4 °C (when used for infection in the 96 well format) or lysed and transferred to 96 well plates (when used for infection in the 12 well format) so that the reporter of viral replication could be quantified by GFP fluorometry using a Perkin Elmer Victor X4 Multimode Plate Reader (Perkin Elmer, Waltham, MA, USA).
(§3) Due to the fact that the HCMV-encoded protein kinase pUL97 represents a functional and structural ortholog of the host CDKs (vCDK/pUL97), the viral mutants of ORF-UL97 were assessed for sensitivity against CDK7 inhibitors.

HCMV UL97-C592G [3] = experiment: as above; type: cell-based, human cytomegalovirus; settings: Human betaherpesvirus 5, read-out: Measured EC50 ref. drugs UL97-C592G
Protocol: as §1, §2, §3

HCMV UL97-H411Y [4] = experiment: as above; type: cell-based, human cytomegalovirus; settings: Human betaherpesvirus 5, read-out: Measured EC50 ref. drugs UL97-H411Y
Protocol: as §1, §2, §3

HCMV UL97-H520Q [5] = experiment: as above; type: cell-based, human cytomegalovirus; settings: Human betaherpesvirus 5, read-out: Measured EC50 ref. drugs UL97-H520Q
Protocol: as §1, §2, §3

HCMV UL97-C480F [6] = experiment: as above; type: cell-based, human cytomegalovirus; settings: Human betaherpesvirus 5, read-out: Measured EC50 ref. drugs UL97-C480F
Protocol: as §1, §2, §3

HCMV UL97-M460I [7] = experiment: as above; type: cell-based, human cytomegalovirus; settings: Human betaherpesvirus 5, AD169, read-out: Measured EC50 ref. drugs UL97-M460I
Protocol: as §1, §2, §3

HCMV UL97-F342S [8] = experiment: as above; type: cell-based, human cytomegalovirus; settings: Human betaherpesvirus 5, read-out: Measured EC50 ref. drugs UL97-F342S
Protocol: as §1, §2, §3

HCMV UL97-H469V = experiment: as above; type: cell-based, human cytomegalovirus; settings: Human betaherpesvirus 5, read-out: Measured EC50 ref. drugs UL97-H469V
Protocol: as §1, §2, §3

HCMV UL97-C603W [9] = experiment: as above; type: cell-based, human cytomegalovirus; settings: Human betaherpesvirus 5, read-out: Measured EC50 ref. drugs UL97-C603W
Protocol: as §1, §2, §3

HCMV UL97-T409M = experiment: as above; type: cell-based, human cytomegalovirus; settings: Human betaherpesvirus 5, read-out: Measured EC50 ref. drugs UL97-T409M
Protocol: as §1, §2, §3

HCMV UL97-F342S [10] = test system: HCMV UL97-F342S; parameters: method as in PMID 31940472; key: R-high, high-level drug resistance; R-int, intermediate-level drug resistance; R-low, low-level drug resistance; S, drug sensitivity; settings: (for F342Y); cited from earlier work
[11] = Neutral Red uptake assay (NRA), uninfected HFFs; type: cell-based; settings: human, read-out: CC50 (VZV-GFP system)
Protocol: The cytotoxic level of the compounds was determined by the use of an established quantitation of cell viability (i.e., Neutral Red uptake assay) performed after 3–7 d of compound incubation on uninfected cells (according to the respective duration of the antiviral reporter-based replication assay performed in parallel) as described earlier in [44].

HCMV UL97-H411Y [12] = test system: HCMV UL97-H411Y; parameters: method as in PMID 31940472; key: R-high, high-level drug resistance; R-int, intermediate-level drug resistance; R-low, low-level drug resistance; S, drug sensitivity; settings: cited from earlier work
HCMV UL97-H520Q [13] = test system: HCMV UL97-H520Q; parameters: method as in PMID 31940472; key: R-high, high-level drug resistance; R-int, intermediate-level drug resistance; R-low, low-level drug resistance; S, drug sensitivity; settings: cited from earlier work
HCMV UL97-C603W [14] = test system: HCMV UL97-C603W; parameters: method as in PMID 31940472; key: R-high, high-level drug resistance; R-int, intermediate-level drug resistance; R-low, low-level drug resistance; S, drug sensitivity; settings: cited from earlier work
HCMV UL97-C480F [15] = test system: HCMV UL97-C480F; parameters: method as in PMID 31940472; key: R-high, high-level drug resistance; R-int, intermediate-level drug resistance; R-low, low-level drug resistance; S, drug sensitivity; settings: cited from earlier work

SMILES: Nc1ccn(C[C@@H](CO)OCP(=O)(O)O)c(=O)n1 [CDV, cidofovir]
- Reported phenotype UL97-C592G (HCMV UL97-C592G [1]): S
- Reported phenotype UL97-M460I (HCMV UL97-M460I [2]): S
- EC50 (HCMV UL97-L397R): 340 nM
- EC50 (HCMV UL97-C592G [3]): 400 nM
- EC50 (HCMV UL97-H411Y [4]): 420 nM
- EC50 (HCMV UL97-H520Q [5]): 0.1 µM
- EC50 (HCMV UL97-C480F [6]): 0.4 µM
- EC50 (HCMV UL97-M460I [7]): 0.07 µM
- EC50 (HCMV UL97-F342S [8]): 0.19 µM
- EC50 (HCMV UL97-H469V): 180 nM
- EC50 (HCMV UL97-C603W [9]): 0.41 µM
- EC50 (HCMV UL97-T409M): 260 nM
- Reported phenotype UL97-F342S (HCMV UL97-F342S [10]): S
- CC50 [11]: > 100 µM
- Reported phenotype UL97-H411Y (HCMV UL97-H411Y [12]): S
- Reported phenotype UL97-H520Q (HCMV UL97-H520Q [13]): S
- Reported phenotype UL97-C603W (HCMV UL97-C603W [14]): S
- Reported phenotype UL97-C480F (HCMV UL97-C480F [15]): S

SMILES: Nc1nc(O)c2ncn(COC(CO)CO)c2n1 [GCV, ganciclovir]
- Reported phenotype UL97-C592G (HCMV UL97-C592G [1]): R-int
- Reported phenotype UL97-M460I (HCMV UL97-M460I [2]): R-high
- EC50 (HCMV UL97-L397R): 2240 ± 500 nM
- EC50 (HCMV UL97-C592G [3]): 4670 ± 1100 nM
- EC50 (HCMV UL97-H411Y [4]): 3760 ± 600 nM
- EC50 (HCMV UL97-H520Q [5]): 10.7 ± 0.7 µM
- EC50 (HCMV UL97-C480F [6]): 10.5 ± 2.2 µM
- EC50 (HCMV UL97-M460I [7]): 9.24 ± 3.3 µM
- EC50 (HCMV UL97-F342S [8]): 17.1 ± 1.5 µM
- EC50 (HCMV UL97-H469V): 1220 ± 200 nM
- EC50 (HCMV UL97-C603W [9]): 9.87 ± 1 µM
- EC50 (HCMV UL97-T409M): 1980 ± 200 nM
- Reported phenotype UL97-F342S (HCMV UL97-F342S [10]): R-high
- CC50 [11]: > 100 µM
- Reported phenotype UL97-H411Y (HCMV UL97-H411Y [12]): R-low
- Reported phenotype UL97-H520Q (HCMV UL97-H520Q [13]): R-high
- Reported phenotype UL97-C603W (HCMV UL97-C603W [14]): R-high
- Reported phenotype UL97-C480F (HCMV UL97-C480F [15]): R-int
